In ChEMBL document CHEMBL1146435, “Anserinones A and B: new antifungal and antibacterial benzoquinones from the coprophilous fungus Podospora anserina” (1997):
Active and inactive are the calls of the source. The calls are words filed in the database; no cut-off is given here.

Tests used:
Candida albicans = assay: Antimicrobial activity against Candida albicans ATCC 90029 at 200 ug/disk; type: functional, organism-based
Bacillus subtilis = assay: Antimicrobial activity against Bacillus subtilis ATCC 6051 at 200 ug/disk; type: functional; conditions: read-out: IZ
Sordaria fimicola = assay: Antimicrobial activity against Sordaria fimicola assessed as reduction in radial growth rate at 200 ug/disk by inoculation disk assay; type: functional; design: scale not given: the % may be the effect or the level left
[1] = Cytotoxicity against human NCI60 cells; type: functional
Staphylococcus aureus = assay: Antimicrobial activity against Staphylococcus aureus ATCC 29213 at 200 ug/disk; type: functional; conditions: read-out: IZ
Ascobolus = assay: Antimicrobial activity against Ascobolus furfuraceus assessed as reduction in radial growth rate at 200 ug/disk by inoculation disk assay; type: functional; design: scale not given: the % may be the effect or the level left

Structure (SMILES) | Activity (Candida albicans) | zone of inhibition at 200 µg/disc (Bacillus subtilis) [mm] | Activity (Sordaria fimicola) [%] | GI50 [1] [µM] | zone of inhibition at 200 µg/disc (Staphylococcus aureus) [mm] | Activity (Ascobolus) [%]
COC1=CC(=O)C(C)=C(CC(C)=O)C1=O [ANSERINONE A] | inactive | 40 | 60 | 9.1 | 40 | 100
COC1=CC(=O)C(C)=C(C[C@H](C)O)C1=O [ANSERINONE B] | inactive | 40 | 50 | 21 | 40 | 37
